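Protocol summary: plate cells (96-well), add compound at 5 concentrations, incubate 48 h, interpolate endpoints linearly. Here, GI50 denotes the concentration required for 50% inhibition of growth.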 Calls of active or inactive are those of the source. No stated cut-off is given here; in the data, active = GI50 up to about 1.1 µM and inactive = higher.
Legend:
Assay in all cases: inhibition of tumour cell growth, NCI panel, 48 h
[1] = test system: OVCAR-5
[2] = test system: CAKI-1
[3] = test system: K562
[4] = test system: EKVX
[5] = test system: UACC-62
[6] = test system: SK-MEL-2
[7] = test system: SF-539
[8] = test system: IGROV-1
[9] = test system: LOX IMVI
[10] = test system: RXF 393
[11] = test system: UO-31
[12] = test system: SK-MEL-5
[13] = test system: SF-295
[14] = test system: HT-29
[15] = test system: HL-60
[16] = test system: OVCAR-3
[17] = test system: SNB-75
[18] = test system: CCRF-CEM
[19] = test system: PC-3
[20] = test system: SK-MEL-28

Measured: GI50

O=C(N/N=C/c1ccccc1)c1c(F)c(F)c(F)c(F)c1F
inactive: [1] > 100 µM | [2] > 100 µM | [3] > 100 µM | [4] > 100 µM | [5] 33.3 µM | [6] > 100 µM | [7] 67 µM | [8] > 100 µM | [9] > 100 µM | [10] > 100 µM | [11] > 100 µM | [12] > 100 µM | [13] > 100 µM | [14] 54.2 µM | [15] > 100 µM | [16] > 100 µM | [17] > 100 µM | [18] > 100 µM | [19] > 100 µM | [20] > 100 µM

CCOC(=O)NC(OCc1ccccc1)(C(=O)OC)C(F)(F)F (stereo not given)
inactive: [1] > 100 µM | [2] 8.2 µM | [3] > 100 µM | [4] > 100 µM | [5] > 100 µM | [6] > 100 µM | [7] > 100 µM | [8] > 100 µM | [9] > 100 µM | [10] > 100 µM | [11] > 100 µM | [12] > 100 µM | [13] > 100 µM | [14] > 100 µM | [15] > 100 µM | [16] > 100 µM | [17] > 10 µM | [18] > 100 µM | [19] > 100 µM | [20] > 100 µM

From ChEMBL document CHEMBL1201862, “PubChem BioAssay data set” (2004)
